Measured values as given in patent EP3315028B1, “USE OF INHIBITORS OF NLP PROTEINS AS PHYTOPHARMACEUTICALS FOR PLANT PATHOGEN CONTROL” (Kemijski Institut, priority 2016, dated 2018).

Assays:
NLPPya [1] = molecular target: T1, NLPPya (Pythium aphanidermatum, UniProt Q9SPD4); assay: Infiltration of NLPs into tobacco leaves in the presence of compounds (inhibition of necrosis); format: in vivo; settings: compound at the final 1 mM concentration; NLPPya 250 nM; tobacco leaves (Figure 5)
Experimental: NLP proteins: NLPPya from the oomycete, Pythium aphanidermatum, was prepared in recombinant form by the use of heterologous expression system for protein production in Escherichia coli. NLPPp from oomycete Phytophthora parasitica was prepared in yeast Pichia pastoris. Proteins were purified with chromatographic procedures and stored in water solutions at -20 °C.
We have injected 50 µL of solution.

NLPPp = molecular target: T2, NLPPp (Phytophthora nicotianae, UniProt Q9AT28); assay: Interactions of compounds with NLP proteins determined by surface plasmon resonance (NLPPp); format: binding, Phytophthora parasitica; settings: Biacore T100, CM5 chip, Steady State Affinity model; 50 mM MES, 140 mM NaCl, 5 % DMSO, pH 5,8; 25 °C; n=number of titrations
T2 construct: made in house; host or cells: Pichia pastoris
T2 sequence (Q9AT28 20-237): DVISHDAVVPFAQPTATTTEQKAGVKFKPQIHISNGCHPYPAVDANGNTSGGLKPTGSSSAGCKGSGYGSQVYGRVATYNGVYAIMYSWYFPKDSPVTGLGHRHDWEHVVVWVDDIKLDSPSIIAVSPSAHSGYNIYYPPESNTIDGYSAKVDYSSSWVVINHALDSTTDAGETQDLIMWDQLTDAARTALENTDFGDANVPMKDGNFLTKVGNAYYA

NLPPya [2] = molecular target: T1, NLPPya; assay: Interactions of compounds with NLP proteins determined by surface plasmon resonance (NLPPya); format: binding; settings: Biacore T100, CM5 chip, Steady State Affinity model; 50 mM MES, 140 mM NaCl, 5 % DMSO, pH 5,8; 25 °C; n=number of titrations

T1 sequence (Q9SPD4 18-234 limits assumed): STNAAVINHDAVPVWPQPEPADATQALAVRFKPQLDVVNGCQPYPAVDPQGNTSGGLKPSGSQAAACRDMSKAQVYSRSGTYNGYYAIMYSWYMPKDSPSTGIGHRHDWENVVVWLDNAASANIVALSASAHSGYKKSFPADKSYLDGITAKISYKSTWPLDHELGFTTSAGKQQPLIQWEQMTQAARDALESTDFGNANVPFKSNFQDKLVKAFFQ

Row | SMILES | necrosis after infiltration of NLP proteins in the presence of compound (NLPPya [1]) | Kd (NLPPp) | Kd (NLPPya [2])
1 | Cc1ccc2occ(C3NC(C(=O)O)CS3)c(=O)c2c1 (stereo not drawn) [Compound I, 2-(6-methyl-4-oxochromen-3-yl)-1,3-thiazolidin-3-ium-4-carboxylate] | Necrosis was not visible | – | –
2 | COc1ccc(Nc2ccccc2C(=O)O)cc1 [Compound IIa, 2-[(4-methoxyphenyl)amino]benzoic acid] | Necrosis was not visible | 71.9 µM | 131 µM
3 | Cc1ccc(Nc2ccccc2C(=O)O)cc1 [IIb, 2-[(4-methylphenyl)amino]benzoic acid] | – | 83.2 µM | 98 µM
4 | O=C(O)c1ccccc1Nc1cccc(F)c1 [IIc, N-(3-Fluorophenyl)anthranilic acid] | – | 62.4 µM | 77.3 µM
5 | Cc1ccc(C)c(Nc2c(C(=O)O)cc([N+](=O)[O-])cc2[N+](=O)[O-])c1 [IId, 2-[(2,5-dimethylphenyl)amino]-3,5-dinitrobenzoic acid] | – | 39.7 µM | –
